The values below come from patent US7470680B2, “Constrained compounds as CGRP-receptor antagonists” (Bristol-Myers Squibb Company, priority 2006, dated 2008).

A value given as a limit tells only on which side of the number the result lay.

CGRP receptor, sequence (Q16602 23-461): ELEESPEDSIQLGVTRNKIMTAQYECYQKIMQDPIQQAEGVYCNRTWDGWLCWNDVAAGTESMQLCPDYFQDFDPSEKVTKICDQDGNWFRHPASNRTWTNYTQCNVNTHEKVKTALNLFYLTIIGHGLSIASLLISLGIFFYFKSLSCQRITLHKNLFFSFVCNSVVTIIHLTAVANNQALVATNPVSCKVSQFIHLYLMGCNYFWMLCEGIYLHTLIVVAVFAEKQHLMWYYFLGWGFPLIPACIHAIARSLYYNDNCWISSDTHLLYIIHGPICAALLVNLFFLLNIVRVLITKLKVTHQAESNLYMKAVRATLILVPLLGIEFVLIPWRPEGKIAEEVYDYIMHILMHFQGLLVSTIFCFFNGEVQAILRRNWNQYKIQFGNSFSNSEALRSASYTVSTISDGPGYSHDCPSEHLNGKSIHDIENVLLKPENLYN
CGRP receptor, sequence (O60894 27-148): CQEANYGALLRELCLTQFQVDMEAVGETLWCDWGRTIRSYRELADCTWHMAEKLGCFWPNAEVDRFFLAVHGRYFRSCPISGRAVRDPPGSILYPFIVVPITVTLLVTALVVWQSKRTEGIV

For the first test, the target named is CGRP receptor (Homo sapiens, UniProt O60894+Q16602). Description: CGRP radioligand binding assay ([125I]-CGRP displacement, SK-N-MC homogenate). Also noted: endogenous in cells; host or cells: SK-N-MC cells (homogenate/membrane pellet). To be noted: Table 1; displacement of [125I]-CGRP, SK-N-MC membranes. The method, then:
CGRP Binding Assay. Tissue Culture. SK-N-MC cells were grown at 37° C. in 5% CO2 as a monolayer in medium consisting of MEM with Earle's salts and L-glutamine (Gibco) supplemented with 10% fetal bovine serum (Gibco). Cell Pellets. The cells were rinsed twice with phosphate-buffered saline (155 mM NaCl, 3.3 mM Na2HPO4, 1.1 mM KH2PO4, pH 7.4), and incubated for 5-10 min. at 4° C. in hypotonic lysis buffer consisting of 10 mM Tris (pH 7.4) and 5 mM EDTA. The cells were transferred from plates to polypropylene tubes (16×100 mm) and homogenized using a polytron. Homogenates were centrifuged at 32,000×g for 30 min. The pellets were resuspended in cold hypotonic lysis buffer with 0.1% mammalian protease inhibitor cocktail (Sigma) and assayed for protein concentration. The SK-N-MC homogenate was then aliquoted and stored at −80° C. until needed.
Radioligand Binding Assay. The compounds of invention were solubilized and carried through serial dilutions using 100% DMSO. Aliquots from the compound serial dilutions were further diluted 25 fold into assay buffer (50 mM Tris-Cl pH 7.5, 5 mM MgCl2, 0.005% Triton X-100) and transferred (volume 50 μl) into 96 well assay plates. [^125I]-CGRP (Amersham Biosciences) was diluted to 60 pM in assay buffer and a volume of […] was added to each well. SK-N-MC pellets were thawed, diluted in assay buffer with fresh 0.1% mammalian protease inhibitor cocktail (Sigma), and homogenized again. SK-N-MC homogenate (5 μg/well) was added in a volume of 100 μl. The assay plates were then incubated at room temperature for 2 h. Assays were stopped by addition of excess cold wash buffer (20 mM Tris-Cl pH 7.5, 0.1% BSA) immediately followed by filtration over glass fiber filters (Whatman GF/B) previously soaked in 0.5% PEI. Non-specific binding was defined with 1 μM beta-CGRP. Protein bound radioactivity was determined using a gamma or scintillation counter. The IC50 was defined as the concentration of a compound of invention required to displace 50% of radioligand binding.
Regarding `O=C(C[C@@H]1Cc2cc(Br)c3[nH]nc(Cl)c3c2CN(CC(F)(F)F)C1=O)N1CCC(N2CCc3ccccc3NC2=O)CC1`, the IC50 – broadly, the concentration needed to halve the response being measured – was 0.01 to 10 nM.
On the same count and under the same terms, then `CC(C)(C)CN1Cc2c(cc(Cl)c3[nH]ccc23)C[C@@H](CC(=O)N2CCC(c3cc4[nH]ccc4[nH]c3=O)CC2)C1=O`, with 0.01 to 10 nM.
As for `CC(C)(C)CN1Cc2c(cc(Cl)c3[nH]ncc23)C[C@@H](CC(=O)N2CCC(c3cc4scc(Br)c4[nH]c3=O)CC2)C1=O`, the IC50 was 0.01 to 10 nM.
Same read-out and setting: the value for `O=C1Nc2ccccc2C2(CCN(C(=O)C[C@@H]3Cc4cc(Cl)c5[nH]ncc5c4CN(CC(F)(F)F)C3=O)CC2)N1` was 0.01 to 10 nM; that for `O=C(C[C@@H]1Cc2cc(Cl)c3[nH]ncc3c2CN(CC(F)(F)F)C1=O)N1CCC(N2CCc3ccccc3NC2=O)CC1` was 0.01 to 10 nM.
Take `O=C(C[C@@H]1Cc2cc(Cl)c3[nH]nc(Cl)c3c2CN(CC(F)(F)F)C1=O)N1CCC(N2CCc3ccccc3NC2=O)CC1`: the IC50 was 0.01 to 10 nM.
The compound `Cn1ccc2[nH]c(=O)c(C3CCN(C(=O)C[C@@H]4Cc5cc(Cl)c6[nH]ccc6c5CN(CC(C)(C)C)C4=O)CC3)cc21` gave an IC50 of 0.01 to 10 nM.
Consider `CCCn1ncc2c3c(cc(Cl)c21)C[C@@H](CC(=O)N1CCC(N2CCc4ccccc4NC2=O)CC1)C(=O)N(CC(F)(F)F)C3`, for which the IC50 is 10 to 100 nM.
The same measure, in the same setting: the value for `O=C1NC(=O)C2(CCN(C(=O)C[C@@H]3Cc4cc(Cl)c5[nH]ncc5c4CN(CC(F)(F)F)C3=O)CC2)N1` was 10 to 100 nM; that for `O=C(C[C@@H]1Cc2cc(Cl)c3[nH]ncc3c2CN(CC(F)(F)F)C1=O)N1CCC(n2cc[nH]c2=O)CC1` was 0.01 to 10 nM.
Turning to `O=C(C[C@@H]1Cc2cc(Br)c3[nH]nc(Br)c3c2CN(CC(F)(F)F)C1=O)N1CCC(n2c(=O)[nH]c3ncccc32)CC1`, the IC50 lay within 0.01 to 10 nM.
Regarding `O=C(C[C@@H]1Cc2cc(Cl)c3[nH]ncc3c2CN(CC(F)(F)F)C1=O)N1CCC(n2ccn(-c3ccccc3)c2=O)CC1`, the IC50 lay within 100 to 1000 nM.
`O=C(C[C@@H]1Cc2cc(Cl)c3[nH]nc(Cl)c3c2CN(CCN2CCCCC2)C1=O)N1CCC(n2c(=O)[nH]c3ncccc32)CC1` displayed an IC50 of 0.01 to 10 nM.
As for `CC(C)(C)CN1Cc2c(cc(Cl)c3[nH]ncc23)C[C@@H](CC(=O)N2CCC(c3cc4scc(Cl)c4[nH]c3=O)CC2)C1=O` (mixture of isomers), the 50% inhibitory concentration (IC50) lay in the range of 0.01 to 10 nM.
For `N#Cc1cn(C2CCN(C(=O)C[C@@H]3Cc4cc(Cl)c5[nH]ncc5c4CN(CC(F)(F)F)C3=O)CC2)c(=O)[nH]1`, the IC50 was 10 to 100 nM.
In turn, `N#Cc1cc(Cl)ccc1C1=CCN(C(=O)C[C@@H]2Cc3cc(Cl)c4[nH]ncc4c3CN(CC(F)(F)F)C2=O)CC1` displayed an IC50 of 10 to 100 nM.
On the same count and under the same terms, then `CCn1ncc2c3c(cc(Cl)c21)C[C@@H](CC(=O)N1CCC(n2c(=O)[nH]c4ncccc42)CC1)C(=O)N(CC(F)(F)F)C3`, with 10 to 100 nM; and `O=C(C[C@@H]1Cc2cc(Cl)c3c(cnn3Cc3ccccc3)c2CN(CC(F)(F)F)C1=O)N1CCC(n2c(=O)[nH]c3ncccc32)CC1`, with 10 to 100 nM.
The compound `Cn1ncc2c3c(cc(Cl)c21)C[C@@H](CC(=O)N1CCC(n2c(=O)[nH]c4ncccc42)CC1)C(=O)N(CC(F)(F)F)C3` displayed an IC50 of 0.01 to 10 nM.
In turn, `O=C(C[C@@H]1Cc2cc(Cl)c3[nH]ncc3c2CN(CC(F)(F)F)C1=O)N1CCC(n2c(=O)[nH]c3c(F)cccc32)CC1` yielded an IC50 of 0.01 to 10 nM.
`O=C(C[C@@H]1Cc2cc(Br)c3[nH]nc(Br)c3c2CN(CC(F)(F)F)C1=O)N1CCC(N2CCc3ccccc3NC2=O)CC1` displayed an IC50 of 0.01 to 10 nM.
In turn, `O=C(C[C@@H]1Cc2cc(Cl)c3[nH]ncc3c2CN(CC(F)(F)F)C1=O)N1CCC(n2ccn(-c3ccccc3F)c2=O)CC1` displayed an IC50 greater than 1000 nM.
`O=C(C[C@@H]1Cc2cc(Cl)c3[nH]ncc3c2CN(CC(F)(F)F)C1=O)N1CCC(n2c(=O)[nH]c3ncccc32)CC1` had an IC50 of 0.01 to 10 nM.
`O=C(C[C@@H]1Cc2cc(Cl)c3[nH]nc(Cl)c3c2CN(CCN2CCCCC2)C1=O)N1CCC(N2CCc3ccccc3NC2=O)CC1` had an IC50 of 0.01 to 10 nM.
Take `CC(C)(C)CN1Cc2c(cc(Cl)c3[nH]ccc23)C[C@@H](CC(=O)N2CCC(O)(c3cc(Cl)nc4[nH]ccc34)CC2)C1=O`: the IC50 fell in the range of 100 to 1000 nM.
Consider `CC(C)(C)CN1Cc2c(cc(Cl)c3[nH]ncc23)C[C@@H](CC(=O)N2CCC(c3cc4sc(Br)cc4[nH]c3=O)CC2)C1=O` (mixture of isomers), for which the IC50 is 0.01 to 10 nM.
`O=C(C[C@@H]1Cc2cc(Cl)c3[nH]ncc3c2CN(CC(F)(F)F)C1=O)N1CCC(N2CCN(c3ccccc3F)C2=O)CC1`: the IC50 was greater than 1000 nM.

Still in this test, the particulars now being: Table 2; displacement of [125I]-CGRP, SK-N-MC membranes.
Take `O=C(C[C@@H]1Cc2cc(Br)c3[nH]ncc3c2CN(CC2CC2)C1=O)N1CCC(c2cc3ccccc3[nH]c2=O)CC1`: the half-inhibitory concentration (IC50) lay in the range of 0.01 to 10 nM.
`CC(C)(C)CN1Cc2c(cc(Cl)c3[nH]ncc23)C[C@@H](CC(=O)N2CCC(c3cc4cc(F)c(F)cc4[nH]c3=O)CC2)C1=O` yielded an IC50 of 10 to 100 nM.
Compound `O=C1Nc2ccccc2CC1N1CCN(C(=O)N[C@@H]2Cc3ccc4[nH]ncc4c3CN(Cc3ccccc3)C2=O)CC1` (stereo partly drawn) yielded an IC50 of 100 to 1000 nM.
In turn, `O=C(C[C@@H]1Cc2cc(Br)c3[nH]ncc3c2CN(CC(F)(F)F)C1=O)N1CCC(c2cc3ccccc3[nH]c2=O)CC1` gave a concentration for half-maximal inhibition (IC50) of 0.01 to 10 nM.
`CC(C)(C)CN1Cc2c(cc(Cl)c3[nH]ncc23)C[C@@H](CC(=O)N2CCC(c3cc4ccc(F)cc4[nH]c3=O)CC2)C1=O` registered an IC50 of 0.01 to 10 nM.
`O=C(C[C@@H]1Cc2cc(Cl)c3[nH]ncc3c2CN(CC(F)(F)F)C1=O)N1CCC(c2cc3cccc(F)c3[nH]c2=O)CC1`: the IC50 was 0.01 to 10 nM.
On the same count and under the same terms, then `CC(C)(C)CN1Cc2c(cc(Cl)c3[nH]ncc23)C[C@@H](CC(=O)N2CCC(N3Cc4cccnc4NC3=O)CC2)C1=O`, with 0.01 to 10 nM; and `COCCN1Cc2c(cc(Br)c3[nH]ncc23)C[C@@H](CC(=O)N2CCC(c3cc4ccccc4[nH]c3=O)CC2)C1=O`, with 0.01 to 10 nM.
With `Cc1cc2c(c3cn[nH]c13)CN(CC(C)(C)C)C(=O)[C@H](CC(=O)N1CCC(c3cc4ccccc4[nH]c3=O)CC1)C2`, the IC50 lay in the range of 0.01 to 10 nM.
Take `O=C(C[C@@H]1Cc2cc(Cl)c3[nH]ncc3c2CN(CC(F)(F)F)C1=O)N1CCC(c2cc3cccnc3[nH]c2=O)CC1`: the IC50 is 0.01 to 10 nM.
On the same count and under the same terms, the value for `O=C(C[C@@H]1Cc2cc(Br)c3[nH]ncc3c2CN(CC(F)(F)F)C1=O)N1CCC(c2cc3cccnc3[nH]c2=O)CC1` was 0.01 to 10 nM; that for `O=C(C[C@@H]1Cc2cc(Cl)c3[nH]ncc3c2CN(CC(F)(F)F)C1=O)N1CCC(N2Cc3ccccc3NC2=O)CC1` was 0.01 to 10 nM.
In turn, `CC(C)(C)CN1Cc2c(cc(Cl)c3[nH]ncc23)C[C@@H](CC(=O)N2CCC(c3cc4cccnc4[nH]c3=O)CC2)C1=O` had an IC50 of 0.01 to 10 nM.
For the compound `O=C(C[C@@H]1Cc2cc(Cl)c3[nH]ncc3c2CN(Cc2ccncc2)C1=O)N1CCC(c2cc3cccc(F)c3[nH]c2=O)CC1`, the IC50 fell in the range of 0.01 to 10 nM.
On to `CC(C)(C)CN1Cc2c(cc(Br)c3[nH]ncc23)C[C@@H](CC(=O)N2CCC(c3cc4ccccc4[nH]c3=O)CC2)C1=O`, for which the IC50 was 0.01 to 10 nM.
With `CC(C)(C)CN1Cc2c(ccc3[nH]ncc23)C[C@@H](NC(=O)N2CCC3(CC2)CC(=O)Nc2ccccc23)C1=O`, the IC50 is greater than 1000 nM.
`CC(C)(C)CN1Cc2c(ccc3[nH]ncc23)CC(N/C(=N/C#N)N2CCC(N3Cc4ccccc4NC3=O)CC2)C1=O` (stereo not drawn) displayed an IC50 of 0.01 to 10 nM.
Compound `CC(=O)N1CCC(N2Cc3c(ccc4[nH]ncc34)C[C@@H](NC(=O)N3CCC(N4Cc5ccccc5NC4=O)CC3)C2=O)CC1` registered an IC50 of 10 to 100 nM.
